Source: ChEMBL document CHEMBL1141439, “An antiproliferative bis-prenylated quinone from the New Zealand brown alga Perithalia capillaris” (J Nat Prod, 2007)

How the values were obtained:
Neutrophil = assay: Inhibition of superoxide production in human neutrophils; assay type: functional, cell-based
HL-60 = assay: Antiproliferative activity against human HL60 cells; assay type: functional, cell-based

IC50 (Neutrophil)	IC50 (HL-60)	Compound
238 µM	5.6 µM	C=CC(C)(C)c1cc2c(cc1O)C=CC(C)(C)O2
29 µM	2.7 µM	C=CC(C)(C)c1ccc(O)c(CC=C(C)C)c1
2.1 µM	0.34 µM	C=CC(C)(C)C1=CC(=O)C(CC=C(C)C)=CC1=O
1.5 µM	73 µM	O=C1C2=C(C=CC(C(=O)O)N2)C(=O)C2=C1NCCS2(=O)=O (stereo not drawn)
